Results published in patent publication US6383773B2, “Penicillin conversion” (Massachusetts Institute of Technology, priority 1998, dated 2002).

Legend:
[1] = test system: immobilized S. clavuligerus NP1 cells; experiment: Conversion of penicillin G by immobilized cells (Example 5); assay type: cell-based
Procedure: Culture Conditions: A seed culture of S. clavuligerus mutant NP-1 was made by thawing a frozen preparation of spores and inoculating 40μl into 40 ml MST medium containing 90 mM MOPS buffer, pH 7.0, 1% starch and 3% trypticase soy broth medium without dextrose (BBL Becton Dickinson Microbiology Systems, Cockeysville, Md.) in 250 ml baffled flasks. The flasks were incubated for 2 days at 30° C. and 250 rpm. One ml of the seed culture was used as inoculum for the main culture which contained 80 ml of MST medium in 500 ml unbaffled flasks. The flasks were incubated for 24 h at 30° C. and 250 rpm.
Preparation of Resting Cells: Cells were harvested by centrifugation at 14,000×g for 15 min at 4° C. and washed twice with cold deionized water. Washed cells were resuspended in 10 ml of water giving a concentration (wet weight) of about 0.31 g/ml.
Preparation of Polyethyleneimine (PEI)-Barium Alginate Entrapped Cells: Resting cells from a one-day old culture of S. clavuligerus NP-1 (2 g wet weight) were directly resuspended in 20 ml of 1.5% (w/v) sodium alginate solution. The resulting sodium alginate-cell suspension was placed into a 10 ml plastic syringe containing a 26.6 G needle. The suspension was added drop by drop into a slowly stirring hardening solution of 2% (w/v) barium chloride containing 1% (w/v) PEI, giving beads of about 1.5-2.0 mm in diameter. […]

[2] = target: T1, S. clavuligerus expandase (Streptomyces clavuligerus, UniProt P18548); experiment: Penicillin ring expansion by cell-free S. clavuligerus expandase extracts, paper disc-agar diffusion bioassay; assay type: biochemical; settings: for DAOG: cell-free extract
T1 construct: endogenous in cells; host or cells: S. clavuligerus mutant NP1, crude cell-free extract
T1 sequence (P18548 whole entry, the tested form may be a part): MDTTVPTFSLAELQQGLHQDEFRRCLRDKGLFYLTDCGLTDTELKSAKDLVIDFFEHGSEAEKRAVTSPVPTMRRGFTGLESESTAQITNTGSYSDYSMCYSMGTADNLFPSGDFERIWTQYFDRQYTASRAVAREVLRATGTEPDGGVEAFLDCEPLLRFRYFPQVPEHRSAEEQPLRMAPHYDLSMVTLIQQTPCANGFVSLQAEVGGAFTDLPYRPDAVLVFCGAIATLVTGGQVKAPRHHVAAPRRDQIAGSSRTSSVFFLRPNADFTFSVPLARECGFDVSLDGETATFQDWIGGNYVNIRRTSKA
Procedure: Preparation of Cell-free Extracts: Fermentation broths were centrifuged at 8,000×g and 4° C. for 10 min. Pellets were washed twice using 50 mM Tris-HCI supplemented with 0.1 mM dithiothreitol (DTT). The cells were resuspended in the same buffer and disrupted by four 25-sec. sonication treatments (power setting 5 and duty cycle 50%), in an ice-water bath using a Branson 350 sonifier (Branson Sonic Power Co., Danbury, Conn.). Cell debris was removed by centrifugation (14,000×g, 30 min., 4° C.). The resulting extracts containing 8-10 mg protein/ml were placed on ice and utilized immediately. Protein concentrations were measured using the Bio-Rad protein assay (Bio-Rad, Hercules, Calif.). Bovine serum albumin was used as standard.
Ring Expansion Reaction: We defined ring expansion reaction conditions as modifications of the standard reaction mixture for expandase reactions described by Maeda et al. (Maeda et al., Enzyme Microb. Technol. 17:231-34, 1995) except that penicillin G was used a substrate instead of penicillin N. Additions were made following the order established by Shen et al. (Shen et al., Enzyme Microb. Technol. 6:402-404, 1984. Reaction mixtures were incubated in test tubes (cell-free extract) or 250 ml baffled flasks (resting cells) at 220 rpm, 30° C. Reactions containing the protein extract were stopped at various times (see Table 1 and Figure Legends) by mixing 0.5 ml of assay solution with 0.5 ml of methanol. In the case of resting cells, samples were centrifuged to remove cells and supernatants were transferred to new tubes. Expandase activity was detected by paper disc-agar diffusion bioassay.
Detection of Expandase Activity: As mentioned above, expandase activity was detected by assaying production of a growth-inhibitory zone in a paper disc-agar diffusion bioassay. Paper discs were saturated with 200 μl of the reaction mixture (cell-free extracts or supernatant (resting cells) as follows. Two discs were superimposed and four 50 μl samples were applied. After each application, the discs were allowed to dry for 20 min at 37° C. under a laminar hood and, finally, they were placed on LB (1% tryptone, 0.5% NaCl, 0.5% yeast extract, 0.1% glucose) 0.8% agar medium seeded with E. coli ESS (a β-lactam supersensitive mutant), and the plates were incubated overnight at 37° C. The formation of DAOG and/or other cephalosporin(s) was determined by including 50,000 IU/ml of penicillinase (Difco Bacto penase concentrate, Difco Laboratories, Detroit, Mich.) in the assay plates. This penicillinase is a narrow spectrum β-lactamase that attacks penicillins but not cephalosporins. The diameters of zones of growth inhibition were measured and quantified with a calibration curve using DAOG as standard.
Ring Expansion of Other Penicillins by Cell-free Extracts: We tested our reaction conditions for their ability to support ring expansion on other penicillin substrates and found detectable expansion with each of the 15 substrates that we tested. […] The reactions contained 4 mg/ml extract (protein concentration), 50 mM Tris-HCl pH 7.4, 1.8 mM FeSO4, 1.28 mM α-ketoglutarate, 8 mM MgSO4, 8 mM KCl, 4 mM ascorbic acid, 14 mM DTT, and 2 mg/ml substrate (except for penicillin mX and octanoyl-6-APA, which were used at 3 mg/ml). Samples were centrifuged at 12K rpm for 5 minutes after 2 hours of reaction. 250 μl of reaction mixture was used in each bioassay.

CC1(C)S[C@@H]2[C@H](NC(=O)Cc3ccccc3)C(=O)N2[C@H]1C(=O)O [Penicillin G, penicillin G]
cephalosporin production ([1]; cells immobilized in agarose (4% w/v) and k-carrageenan (3% w/v)): did not observe cephalosporin production
ring expansion ([1]; resting cells entrapped in PEI-barium alginate (1.5%)): able to expand penicillin G
Ring expansion, size of zones of inhibition ([2]; 4 mg/ml extract protein, 2 mg/ml substrate (penicillin mX and octanoyl-6-APA 3 mg/ml), 2 hours): Large zones of inhibition
Inhibition Zone Diameter ([2]; 4 mg/ml extract protein, 2 mg/ml substrate, 2 hours of reaction, 250 μl in bioassay (E. coli ESS, penicillinase)): 29 mm
DAOG ([2]; protein 1 mg/ml, FeSO4 0.036 mM, α-ketoglutarate 0.64 mM, penicillin G 0.1 mg/ml): <2 µg/mL
DAOG ([2]; protein 1 mg/ml, FeSO4 0.036 mM, α-ketoglutarate 0.64 mM, penicillin G 0.3 mg/ml): <2 µg/mL
DAOG ([2]; protein 1 mg/ml, FeSO4 0.036 mM, α-ketoglutarate 0.64 mM, penicillin G 1 mg/ml): 2.1 µg/mL
DAOG ([2]; protein 1 mg/ml, FeSO4 1.8 mM, α-ketoglutarate 1.28 mM, penicillin G 0.1 mg/ml): <2 µg/mL
DAOG ([2]; protein 1 mg/ml, FeSO4 1.8 mM, α-ketoglutarate 1.28 mM, penicillin G 0.3 mg/ml): <2 µg/mL
DAOG ([2]; protein 1 mg/ml, FeSO4 1.8 mM, α-ketoglutarate 1.28 mM, penicillin G 1 mg/ml): 2.1 µg/mL
DAOG ([2]; protein 2 mg/ml, FeSO4 0.036 mM, α-ketoglutarate 0.64 mM, penicillin G 0.1 mg/ml): <2 µg/mL
DAOG ([2]; protein 2 mg/ml, FeSO4 0.036 mM, α-ketoglutarate 0.64 mM, penicillin G 0.3 mg/ml): 2.1 µg/mL
DAOG ([2]; protein 2 mg/ml, FeSO4 0.036 mM, α-ketoglutarate 0.64 mM, penicillin G 1 mg/ml): 2.6 µg/mL
DAOG ([2]; protein 2 mg/ml, FeSO4 1.8 mM, α-ketoglutarate 1.28 mM, penicillin G 0.1 mg/ml): 2.1 µg/mL
DAOG ([2]; protein 2 mg/ml, FeSO4 1.8 mM, α-ketoglutarate 1.28 mM, penicillin G 0.3 mg/ml): 2.3 µg/mL
DAOG ([2]; protein 2 mg/ml, FeSO4 1.8 mM, α-ketoglutarate 1.28 mM, penicillin G 1 mg/ml): 3.4 µg/mL
DAOG ([2]; protein 4 mg/ml, FeSO4 0.036 mM, α-ketoglutarate 0.64 mM, penicillin G 0.1 mg/ml): 2.3 µg/mL
DAOG ([2]; protein 4 mg/ml, FeSO4 0.036 mM, α-ketoglutarate 0.64 mM, penicillin G 0.3 mg/ml): 2.6 µg/mL
DAOG ([2]; protein 4 mg/ml, FeSO4 0.036 mM, α-ketoglutarate 0.64 mM, penicillin G 1 mg/ml): 3.4 µg/mL
DAOG ([2]; protein 4 mg/ml, FeSO4 1.8 mM, α-ketoglutarate 1.28 mM, penicillin G 0.1 mg/ml): 2.8 µg/mL
DAOG ([2]; protein 4 mg/ml, FeSO4 1.8 mM, α-ketoglutarate 1.28 mM, penicillin G 0.3 mg/ml): 3.4 µg/mL
DAOG ([2]; protein 4 mg/ml, FeSO4 1.8 mM, α-ketoglutarate 1.28 mM, penicillin G 1 mg/ml): 5.6 µg/mL
